# According to ChEMBL document CHEMBL5579884, “Cellular, Structural Basis, and Recent Progress for Targeting Murine Double Minute X (MDMX) in Tumors” (J Med Chem, 2024):
# Experiments:
# SGC-7901 = test: Cytotoxicity against human SGC-7901 cells assessed as reduction in cell growth incubated for 48 hrs by MTT assay; details: SGC-7901, 48 h
# MDA-MB-175-VII = test: cells; details: Homo sapiens
# Description: Cytotoxicity against human MDA-MB-175-VII cells assessed as reduction in cell growth
# BGC-823 = test: Cytotoxicity against human BGC-823 cells assessed as reduction in cell growth incubated for 48 hrs by MTT assay; details: BGC-823, 48 h
# [1] = tested on: KATO III stomach cancer cell line; test: Cytotoxicity against human KATO III stomach cancer cell line assessed as reduction in cell growth incubated for 48 hrs by MTT assay
# ZR-75-30 = test: Cytotoxicity against human ZR-75-30 cells assessed as reduction in cell growth
# Hs-578T = test: cells; details: Homo sapiens
# Description: Cytotoxicity against human Hs-578T cells assessed as cell growth inhibition
# HGC-27 = test: Cytotoxicity against human HGC-27 cells assessed as reduction in cell growth incubated for 48 hrs by MTT assay; details: HGC-27, 48 h
# NCI-N87 = test: Cytotoxicity against human NCI-N87 cells assessed as reduction in cell growth incubated for 48 hrs by MTT assay; details: NCI-N87, 48 h
# MKN-45 = test: Cytotoxicity against human MKN-45 cells assessed as reduction in cell growth incubated for 48 hrs by MTT assay; details: MKN-45, 48 h
# MCF7 [2] = test: Cytotoxicity against human MCF7 cells assessed as reduction in cell growth
# ZR-75-1 = test: Cytotoxicity against human ZR-75-1 cells assessed as reduction in cell growth
# BT-474 = test: Cytotoxicity against human BT-474 cells assessed as cell growth inhibition
# BT-549 = test: Cytotoxicity against human BT-549 cells assessed as cell growth inhibition
# Prostatic carcinoma cell = test: Cytotoxicity against human Prostatic carcinoma cell
# MDA-MB-435 = test: Antiproliferative activity against human MDA-MB-435 cells assessed as reduction in cell growth
# HCT-116 [3] = test: Antiproliferative activity against human HCT-116 cells assessed as reduction in cell growth by MTT assay
# PC-3 [4] = test: Antiproliferative activity against human PC-3 cells assessed as reduction in cell growth
# SW480 = test: Antiproliferative activity against human SW480 cells assessed as reduction in cell growth
# LNCaP [5] = test: Antiproliferative activity against human LNCaP cells assessed as reduction in cell growth
# MCF7 [6] = test: Antiproliferative activity against human MCF7 cells assessed as reduction in cell growth
# RKO = test: Antiproliferative activity against human RKO cells assessed as reduction in cell growth
# DU-145 [7] = test: Antiproliferative activity against human DU-145 cells assessed as reduction in cell growth
# LNCaP C4-2 = test: Antiproliferative activity against human C4-2 cells assessed as reduction in cell growth
# LAPC4 = test: Antiproliferative activity against human LAPC4 cells assessed as reduction in cell growth
# HCT-116 [8] = test: Antiproliferative activity against human HCT-116 cells assessed as reduction in cell viability measured for 48 hrs by MTT assay; details: HCT-116, 48 h
# Protein Mdm4 [9] = target: T1, Protein Mdm4 (Homo sapiens, UniProt O15151); test: Inhibition of MDMX (unknown origin)
# T1 sequence (O15151 whole entry): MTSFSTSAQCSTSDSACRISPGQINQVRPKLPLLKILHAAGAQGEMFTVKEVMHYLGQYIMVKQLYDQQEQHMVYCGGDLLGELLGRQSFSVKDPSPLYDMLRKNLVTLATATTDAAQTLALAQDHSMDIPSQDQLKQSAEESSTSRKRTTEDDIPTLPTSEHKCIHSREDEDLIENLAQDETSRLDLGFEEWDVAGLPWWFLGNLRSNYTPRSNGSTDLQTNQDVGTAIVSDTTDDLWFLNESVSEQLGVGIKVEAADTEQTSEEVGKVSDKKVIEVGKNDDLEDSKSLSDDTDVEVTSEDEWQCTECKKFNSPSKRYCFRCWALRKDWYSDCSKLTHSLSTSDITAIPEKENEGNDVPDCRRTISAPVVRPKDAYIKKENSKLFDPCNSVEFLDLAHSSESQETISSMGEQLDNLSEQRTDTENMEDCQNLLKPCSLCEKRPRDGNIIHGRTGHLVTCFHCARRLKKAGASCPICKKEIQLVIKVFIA
# OCI-AML-3 = test: Antiproliferative activity against human OCI-AML-3 cells assessed as reduction in cell viability measured for 48 hrs by MTT assay; details: OCI-AML-3, 48 h
# A549 = test: Antiproliferative activity against human A549 cells assessed as reduction in cell viability measured for 48 hrs by MTT assay; details: A549, 48 h
# [10] = target: T2, E3 ubiquitin-protein ligase Mdm2 (Homo sapiens, UniProt Q00987); test: Inhibition of MDM2 (unknown origin)
# T2 sequence (Q00987 whole entry): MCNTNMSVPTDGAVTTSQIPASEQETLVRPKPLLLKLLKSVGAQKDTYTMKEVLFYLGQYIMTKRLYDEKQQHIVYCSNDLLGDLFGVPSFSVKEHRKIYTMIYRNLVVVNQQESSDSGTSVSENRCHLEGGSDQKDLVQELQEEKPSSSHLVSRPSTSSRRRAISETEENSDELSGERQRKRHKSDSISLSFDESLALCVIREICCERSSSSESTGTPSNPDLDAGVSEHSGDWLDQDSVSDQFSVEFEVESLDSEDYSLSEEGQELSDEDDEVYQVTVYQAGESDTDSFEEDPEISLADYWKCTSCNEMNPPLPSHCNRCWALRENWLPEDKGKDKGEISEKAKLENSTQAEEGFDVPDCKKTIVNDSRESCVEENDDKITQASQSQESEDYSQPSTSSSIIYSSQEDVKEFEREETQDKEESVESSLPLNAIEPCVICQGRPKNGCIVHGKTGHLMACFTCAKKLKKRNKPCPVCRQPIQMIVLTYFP
# MCF7 [11] = test: Antiproliferative activity against human MCF7 cells assessed as reduction in cell viability measured for 48 hrs by MTT assay; details: MCF7, 48 h
# [12] = target: T2, E3 ubiquitin-protein ligase Mdm2; test: Binding affinity to MDM2 (unknown origin) assessed as dissociation constant
# HCT-116 [13] = test: Antiproliferative activity against human HCT-116 cells assessed as reduction in cell viability incubated for 24 hrs by Celltiter-Glo assay; details: HCT-116, 24 h
# [14] = Antiproliferative activity against human U373 MG cells assessed as reduction in cell growth incubated for 72 hrs by MTS assay
# MCF7 [15] = test: Antiproliferative activity against human MCF7 cells assessed as reduction in cell growth incubated for 72 hrs by MTS assay; details: MCF7, 72 h
# T98G = test: Antiproliferative activity against human T98G cells assessed as reduction in cell growth incubated for 72 hrs by MTS assay
# U-87 MG = test: Antiproliferative activity against human U-87 MG cells assessed as reduction in cell growth incubated for 72 hrs by MTS assay
# [16] = Antiproliferative activity against human C20/A4 cells assessed as reduction in cell growth incubated for 72 hrs by MTS assay
# [17] = Cytotoxicity against human Triple-negative breast cancer cell; details: Breast carcinoma cell
# Breast cancer cell line = test: Cytotoxicity against human Breast cancer cell line
# [18] = Antiproliferative activity against human IMR-90 cells assessed as reduction in cell viability incubated for 24 hrs by Celltiter-Glo assay
# DU-145 [19] = test: Antiproliferative activity against human DU-145 cells assessed as reduction in cell viability incubated for 24 hrs by Celltiter-Glo assay; details: DU-145, 24 h
# PC-3 [20] = test: Antiproliferative activity against human PC-3 cells assessed as reduction in cell viability incubated for 24 hrs by Celltiter-Glo assay; details: PC-3, 24 h
# LNCaP [21] = test: Antiproliferative activity against human LNCaP cells assessed as reduction in cell viability incubated for 24 hrs by Celltiter-Glo assay
# [22] = Antiproliferative activity against human RWPE-1 cells assessed as reduction in cell viability incubated for 24 hrs by Celltiter-Glo assay
# SH-SY5Y = test: Antiproliferative activity against human SH-SY5Y cells assessed as reduction in cell growth
# SJSA-1 = test: Antiproliferative activity against human SJSA-1 cells assessed as reduction in cell growth
# [23] = Antiproliferative activity against human BEAS-2B cells assessed as reduction in cell growth
# HCT-116 [24] = test: Antiproliferative activity against human HCT-116 cells assessed as reduction in cell growth
# L02 = test: Antiproliferative activity against human L02 cells assessed as reduction in cell growth
# [25] = target: T2, E3 ubiquitin-protein ligase Mdm2; test: Binding affinity to MDM2 (unknown origin) assessed as inhibition constant
# MCF7 [26] = test: Antiproliferative activity against human MCF7 cells assessed as reduction in cell viability incubated for 24 hrs by Celltiter-Glo assay; details: MCF7, 24 h
# OCI-AML2 = test: Antiproliferative activity against human OCI-AML2 cells assessed as reduction in cell viability incubated for 24 hrs by Celltiter-Glo assay; details: OCI-AML2, 24 h
# HL-60 = test: Antiproliferative activity against human HL-60 cells assessed as reduction in cell viability incubated for 24 hrs by Celltiter-Glo assay; details: HL-60, 24 h
# Protein Mdm4 [27] = target: T1, Protein Mdm4; test: Binding affinity to MDMX (unknown origin) assessed as inhibition constant
# [28] = target: T2, E3 ubiquitin-protein ligase Mdm2
# Protein Mdm4 [29] = target: T1, Protein Mdm4
compound,measurement,setting,value
Cc1c2ccccc2c(CSC(=N)N)c2ccccc12,IC50,SGC-7901,1200 nM
same,IC50,MDA-MB-175-VII,1500 nM
same,IC50,BGC-823,1200 nM
same,IC50,[1],1200 nM
same,IC50,ZR-75-30,1500 nM
same,IC50,Hs-578T,1500 nM
same,IC50,HGC-27,1200 nM
same,IC50,NCI-N87,1200 nM
same,IC50,MKN-45,1200 nM
same,IC50,MCF7 [2],1500 nM
same,IC50,ZR-75-1,1500 nM
same,IC50,BT-474,1500 nM
same,IC50,BT-549,1500 nM
same,IC50,Prostatic carcinoma cell,1500 nM
Cc1c(Cl)ccc2c(/C=C3\NC(=O)N(C(C(=O)NC(CO)CO)c4ccc(F)c(F)c4)C3=O)c[nH]c12 (stereo not given),IC50,MDA-MB-435,25300 nM
same,IC50,HCT-116 [3],3000 nM
same,IC50,PC-3 [4],45300 nM
same,IC50,SW480,> 50000 nM
same,IC50,LNCaP [5],1100 nM
same,IC50,MCF7 [6],3500 nM
same,IC50,RKO,3200 nM
same,IC50,DU-145 [7],45500 nM
same,IC50,LNCaP C4-2,1700 nM
same,IC50,LAPC4,1200 nM
CC(C)C(=O)Nc1ccccc1SC(=O)C(C)C,IC50,HCT-116 [8],16000 nM
same,IC50,Protein Mdm4 [9],1500 nM
same,IC50,OCI-AML-3,18000 nM
same,IC50,A549,> 30000 nM
same,IC50,[10],13100 nM
same,IC50,MCF7 [11],18000 nM
C[C@@H](c1ccc(Cl)cc1Cl)n1cnc(-c2ccccc2)c1-c1c(C(=O)Nc2cc(C(=O)O)ccc2N2CCC(N3CCCOC3=O)CC2)[nH]c2cc(Cl)ccc12,Kd,[12],< 0.1 nM
Cc1ccnc(NC(c2cccc(Cl)c2Cl)c2ccc3cccnc3c2O)c1 (stereo not given),IC50,HCT-116 [13],600 nM
Cc1c(Cl)ccc2c(/C=C3\NC(=O)N(Cc4ccc(F)c(F)c4)C3=O)c[nH]c12,IC50,[14],1000 nM
same,IC50,MCF7 [15],1900 nM
same,IC50,T98G,> 10000 nM
same,IC50,U-87 MG,1400 nM
same,IC50 at 72 h,[16],4500 nM
Brc1c2ccccc2c(C[P+](c2ccccc2)(c2ccccc2)c2ccccc2)c2ccccc12,IC50,[17],3700 nM
same,IC50,Breast cancer cell line,3700 nM
C=C1C(=O)O[C@H]2C[C@H](C)[C@@]34C[C@]5(C(=O)OC6CC(C)=C([C@H](C)CCCOC(C)=O)[C@@H](O)C65)[C@@H](C(C)=C3C[C@H]12)C4OC(C)=O (stereo not given in full),IC50 at 24 h,[18],> 50000 nM
same,IC50,DU-145 [19],4000 nM
same,IC50,PC-3 [20],1300 nM
same,IC50,LNCaP [21],1700 nM
COC(C)(C)CCC[C@](C)(O)[C@H]1CC[C@]2(C)[C@@H]1[C@H](O)C[C@@H]1[C@@]3(C)CC[C@H](O)C(C)(C)[C@@H]3CC[C@]12C,IC50,DU-145 [19],7600 nM
same,IC50 at 24 h,[22],> 50000 nM
same,IC50,PC-3 [20],4400 nM
same,IC50,LNCaP [21],9600 nM
CN(C)C1CCN(C(=O)CCC(=O)C(c2ccc(Cl)cc2)C(C(=O)c2ccc(Cl)cc2)c2ccc(F)cc2Cl)CC1 (stereo not given),IC50,SH-SY5Y,500 nM
same,IC50,SJSA-1,600 nM
same,IC50,[23],18000 nM
same,IC50,HCT-116 [24],700 nM
same,IC50,L02,15900 nM
COc1cccc2c1NCC2C(=O)N[C@H]1CCN(c2ccc(C)cc2)C1 (stereo not given in full),IC50,[10],> 50000 nM
N#Cc1c2ccc(N)cc2nc2cc(N)ccc12,IC50,HCT-116 [8],2800 nM
same,IC50,OCI-AML-3,1300 nM
same,IC50,A549,5300 nM
same,IC50,MCF7 [11],4300 nM
O=C(CCC(=O)N1CCNCC1)C(c1ccc(Cl)cc1)C(C(=O)c1ccc(Cl)cc1)c1ccc(F)cc1Cl (stereo not given),IC50,SH-SY5Y,700 nM
same,IC50,SJSA-1,600 nM
same,IC50,[23],16300 nM
same,IC50,HCT-116 [24],700 nM
same,IC50,L02,12600 nM
O=c1cc(-c2ccc(Oc3c(O)cc4oc(-c5ccc(O)cc5)cc(=O)c4c3O)cc2)oc2cc(O)cc(O)c12 [HINOKIFLAVONE],Ki,[25],13000 nM
same,IC50,MCF7 [26],16300 nM
same,IC50,OCI-AML2,4900 nM
same,IC50,HL-60,11000 nM
same,IC50,HCT-116 [13],14200 nM
same,Ki,Protein Mdm4 [27],12000 nM
Ac-ETFLDLWKLELEN-NH2,Kd,[28],149000 nM
Ac-ETFLDLWRLLLQN-NH2,Kd,Protein Mdm4 [29],109000 nM
